The record followed here is US8785692B2, “Substituted phenylamidines and the use thereof as fungicides” (priority 2007, dated 2014).

Data set [1] is described as follows: logP (neutral / acidic, pH 2.3).
The test system of a further data set is Sphaerotheca fuliginea. In words: Sphaerotheca test (cucumber) / protective. Particulars: Podosphaera fuliginea, 168 h, read-out: efficacy. Format: in vivo. On the procedure: Sphaerotheca Test (Cucumber)/Protective
Solvent: 49 parts by weight of N,N-dimethylformamide
Emulsifier: 1 part by weight of alkylaryl polyglycol ether
To produce a suitable preparation of active compound, 1 part by weight of active compound is mixed with the stated amounts of solvent and emulsifier, and the concentrate is diluted with water to the desired concentration.
To test for protective activity, young cucumber plants are sprayed with the active compound preparation at the stated application rate. 1 day after the treatment, the plants are inoculated with a spore suspension of Sphaerotheca fuliginea. The plants are then placed in a greenhouse at 70% relative atmospheric humidity and a temperature of 23° C.
Evaluation is carried out 7 days after the inoculation. 0% means an efficacy which corresponds to that of the control, whereas an efficacy of 100% means that no infection is observed.

The mark [2] stands for this setting: cucumber, protective, 500 ppm active compound, evaluation 7 days after inoculation.

Read-outs that look alike come from different tables or passages of the source. A value given as a limit tells only on which side of the number the result lay.

The logP is the decadic logarithm of the partition coefficient of the neutral form, usually between octanol and water. Lower therefore signals a more hydrophilic compound. As to `CCN(C)C=Nc1cc(C)c(/C(C)=N/OCC(F)(F)F)cc1C` [Compound 17, N′-{2,5-dimethyl-4-[(1E)-N-(2,2,2-trifluoroethoxy)ethanimidoyl]phenyl}-N-ethyl-N-methylimidoformamide], the results for the logP in data set [1] and in data set [1] (pH 2.3) were 4.24 and 1.88, respectively. The pest or weed control at 500 ppm in the data set with Sphaerotheca fuliginea (setting [2]) is not below 70%.
On to `CC#CCO/N=C(\C)c1cc(C)c(N=CN(C)CC)cc1C` [Compound 16, N′-{4-[(1E)-N-(but-2-yn-1-yloxy)ethanimidoyl]-2,5-dimethylphenyl}-N-ethyl-N-methylimidoformamide], for which the lipophilicity (logP) in data set [1] was determined as 3.91; in data set [1] (pH 2.3), 1.72. Further, in the data set with Sphaerotheca fuliginea, the pest or weed control at 500 ppm was not below 70%.
In the case of `CCN(C)C=Nc1cc(C)c(/C(C)=N/OCc2ccccc2)cc1C` [Compound 31, N′-(4-{(1E)-N—[benzyloxy]-ethanimidoyl}-2,5-dimethylphenyl)-N-ethyl-N-methylimidoformamide], the logP in data set [1] worked out at 4.65; in data set [1] (pH 2.3), 2.07. In the data set with Sphaerotheca fuliginea (setting [2]), the pest or weed control at 500 ppm is not below 70%.
The matching figures for `CCN(C)C=Nc1cc(C)c(/C(C)=N/OCc2ccc(C(C)(C)C)cc2)cc1C` [Compound 12, N′-(4-{(1E)-N-[(4-tert-butylbenzyl)oxy]ethanimidoyl}-2,5-dimethylphenyl)-N-ethyl-N-methylimidoformamide]: 6.26, 3.05 and not below 70%.
Turning to `CCN(C)C=Nc1cc(C)c(/C(C)=N/OC(C2CC2)C2CC2)cc1C` [Compound 20, N′-{4-[(1E)-N-(dicyclopropylmethoxy)ethanimidoyl]-2,5-dimethylphenyl}-N-ethyl-N-methylimidoformamide], the logP in data set [1] came to 5.33; in data set [1] (pH 2.3), 2.38. Also, the pest or weed control at 500 ppm in the data set with Sphaerotheca fuliginea (setting [2]) was not below 70%.
The matching figures for `CCCO/N=C(\C)c1cc(C)c(N=CN(C)CC)cc1C` [Compound 37, N′-{4-[(1E)-N-(n-propoxy)ethanimidoyl]-2,5-dimethylphenyl}-N-ethyl-N-methylimidoformamide]: 4.43, 1.9 and not below 70%.
On to `CCN(C)C=Nc1cc(C)c(/C(C)=N/OCC=C(C)C)cc1C` [Compound 33, N′-(2,5-dimethyl-4-{(1E)-N-[(3-methylbut-2-en-1-yl)oxy]ethanimidoyl}phenyl)-N-ethyl-N-methylimidoformamide], for which the lipophilicity (logP) in data set [1] turned out to be 4.86; in data set [1] (pH 2.3), 2.24. The pest or weed control at 500 ppm in the data set on Sphaerotheca fuliginea is not below 70%.
In the case of `CCN(C)C=Nc1cc(C)c(/C=N/OC(C)C)cc1C` [Compound 40, N-ethyl-N′-{4-[(E)-(isopropoxyimino)methyl]-2,5-dimethylphenyl}-N-methylimidoformamide], the logP in data set [1] was determined as 4.41; in data set [1] (pH 2.3) it was 1.76. Further, the pest or weed control at 500 ppm in the data set on Sphaerotheca fuliginea (setting [2]) is not below 70%.
On to `CCN(C)C=Nc1cc(C)c(/C(C)=N/OCc2c(C)noc2C)cc1C` [Compound 36, N′-(4-{(1E)-N-[(3,5-dimethylisoxazol-4-yl)methoxy]ethanimidoyl}-2,5-dimethylphenyl)-N-ethyl-N-methylimidoformamide], for which the logP in data set [1] worked out at 3.63; in data set [1] (pH 2.3) it was 1.68. For the same compound, the pest or weed control at 500 ppm in the data set on Sphaerotheca fuliginea (setting [2]) is not below 70%.
The matching figures for `CCN(C)C=Nc1cc(C)c(/C(C)=N/OCc2nc(-c3ccccc3)cs2)cc1C` [Compound 21, N′-(2,5-dimethyl-4-{(1E)-N-[(4-phenyl-1,3-thiazol-2-yl)meth-oxy]ethanimidoyl}phenyl)-N-ethyl-N-methylimidoformamide]: 5.1, 2.3 and not below 70%.
`CCN(C)C=Nc1cc(C)c(/C=N/OC(C)(C)C)cc1C` [Compound 39, N′-{4-[(E)-(tert-butoxyimino)methyl]-2,5-dimethylphenyl}-N-ethyl-N-methylimidoformamide]: the logP in data set [1] stood at 4.98; in data set [1] (pH 2.3), 2.11. Further, the pest or weed control at 500 ppm with Sphaerotheca fuliginea is not below 70%.
As for `CCN(C)C=Nc1cc(C)c(/C(C)=N/OCc2ccc(Cl)c(Cl)c2)cc1C` [Compound 30, N′-(4-{(1E)-N-[(3,4-dichlorobenzyl)oxy]-ethanimidoyl}-2,5-dimethylphenyl)-N-ethyl-N-methylimidoformamide], the lipophilicity (logP) was 5.79 in data set [1] and 2.71 in data set [1] (pH 2.3). Further, the pest or weed control at 500 ppm with Sphaerotheca fuliginea was not below 70%.
For `CCN(C)C=Nc1cc(C)c(/C(C)=N/OC2CCCC2)cc1C` [Compound 14, N′-{4-[(1E)-N-(cyclopentyloxy)ethanimidoyl]-2,5-dimethylphenyl}-N-ethyl-N-methylimidoformamide], the figures for the logP in data set [1] and in data set [1] (pH 2.3) were 5.24 and 2.2, respectively. Also, the pest or weed control at 500 ppm in the data set on Sphaerotheca fuliginea (setting [2]) was not below 70%.
As to `CCN(C)C=Nc1cc(C)c(/C=N/OCc2ccccc2)cc1C` [Compound 3, N′-(4-{(E)-[(benzyloxy)imino]methyl}-2,5-di-methylphenyl)-N-ethyl-N-methylimidoformamide], the logP in data set [1] (pH 2.3) was 2.02. In the data set on Sphaerotheca fuliginea (setting [2]), the pest or weed control at 500 ppm was not below 70%.
On to `CCN(C)C=Nc1cc(C)c(/C(C)=N/OCc2ccc(Cl)nc2)cc1C` [Compound 32, N′-(4-{(1E)-N-[(6-chloropyridin-3-yl)methoxy]ethanimidoyl}-2,5-dimethylphenyl)-N-ethyl-N-methylimidoformamide], for which the logP came to 3.95 in data set [1] and 1.67 in data set [1] (pH 2.3). The pest or weed control at 500 ppm in the data set on Sphaerotheca fuliginea (setting [2]) is not below 70%.
The matching figures for `CCN(C)C=Nc1cc(C)c(/C(C)=N/OCc2c(Cl)cccc2Cl)cc1C` [Compound 29, N′-(4-{(1E)-N-[(2,6-dichlorobenzyl)oxy]ethanimidoyl}-2,5-dimethylphenyl)-N-ethyl-N-methylimidoformamide]: 5.51, 3.75 and not below 70%.
The matching figures for `CCN(C)C=Nc1cc(C)c(/C(C)=N/OCCOc2cccc(C(F)(F)F)c2)cc1C` [Compound 34, N′-{2,5-dimethyl-4-[(1E)-N-{2-[3-(trifluoromethyl)phenoxy]ethoxy}ethan-imidoyl]phenyl}-N-ethyl-N-methylimidoformamide]: 5.28, 2.59 and not below 70%.
In the case of `C#CC(C)O/N=C(\C)c1cc(C)c(N=CN(C)CC)cc1C` (stereo not shown) [Compound 15, N′-(2,5-dimethyl-4-{(1E)-N-[(1-methylprop-2-yn-1-yl)oxy]ethanimidoyl}phenyl)-N-ethyl-N-methylimidoformamide], the logP in data set [1] came to 4; in data set [1] (pH 2.3), 1.8. Besides, the pest or weed control at 500 ppm in the data set with Sphaerotheca fuliginea (setting [2]) is not below 70%.
`CCN(C)C=Nc1cc(C)c(/C(C)=N/CCCC(C)(C)C)cc1C` [Compound 46, N′-{4-[(1E)-N-(4,4-dimethylpentyl)ethanimidoyl]-2,5-dimethylphenyl}-N-ethyl-N-methylimido-formamide]: the logP amounted to 4.75 in data set [1] and 1.79 in data set [1] (pH 2.3).
With `CCN(C)C=Nc1cc(C)c(/C=N/OCCC(C)(C)C)cc1C` [Compound 48, N′-(4-{(E)-[(3,3-dimethylbutoxy)imino]methyl}-2,5-dimethylphenyl)-N-ethyl-N-methylimidoformamide], the logP worked out at 5.89 in data set [1] and 2.3 in data set [1] (pH 2.3).
On to `CCN(C)C=Nc1cc(C)c(/C(C)=N/OCc2cccc(Oc3ccccc3)c2)cc1C` [Compound 22, N′-(2,5-dimethyl-4-{(1E)-N-[(3-phenoxybenzyl)oxy]ethanimidoyl}phenyl)-N-ethyl-N-methylimidoformamide], for which the logP was 5.77 in data set [1] and 2.69 in data set [1] (pH 2.3). In addition, the pest or weed control at 500 ppm in the data set with Sphaerotheca fuliginea (setting [2]) was not below 70%.
Regarding `CCN(C)C=Nc1cc(C)c(/C(C)=N/OC/C=C/c2ccccc2)cc1C` [Compound 19, N′-{2,5-dimethyl-4-[(1E)-N-{[(2E)-3-phenylprop-2-en-1-yl]oxy}ethanimidoyl]phenyl}-N-ethyl-N-methylimidoformamide], the logP in data set [1] came to 5.2; in data set [1] (pH 2.3) it was 2.32.
As to `CCN(C)C=Nc1cc(C)c(/C(C)=N/OC(C)C)cc1C` [Compound 10, N-ethyl-N′-{4-[(1E)-N-isopropoxyethanimidoyl]-2,5-dimethylphenyl}-N-methylimidoformamide], the logP is 4.42 in data set [1] and 1.92 in data set [1] (pH 2.3).
Take `CCN(C)C=Nc1cc(C)c(/C(C)=N/Oc2ccccc2)cc1C` [Compound 11, N′-{2,5-dimethyl-4-[(1E)-N-phenoxyethanimidoyl]-phenyl}-N-ethyl-N-methylimidoformamide]: the logP in data set [1] (pH 2.3) came out at 2.21. Also, in the data set with Sphaerotheca fuliginea (setting [2]), the pest or weed control at 500 ppm was not below 70%.
The compound `Cc1cc(C=O)c(C)cc1N` [4-Amino-2,5-dimethylbenzaldehyde] displayed a logP in data set [1] (pH 2.3) of 1.34.
Regarding `CCN(C)C=Nc1cc(C)c(/C(C)=N/OCCc2ccc(Cl)cc2)cc1C` [Compound 25, N′-(4-{(1E)-N-[2-(4-chloro-phenyl)ethoxy]ethanimidoyl}-2,5-dimethylphenyl)-N-ethyl-N-methylimidoformamide], the results for the logP in data set [1] and in data set [1] (pH 2.3) were 5.55 and 2.56, respectively. The pest or weed control at 500 ppm in the data set on Sphaerotheca fuliginea (setting [2]) is not below 70%.
